Drawing on ChEMBL document CHEMBL5608235, “Tricyclic Benzo[1,3]oxazinyloxazolidinones as Potent Antibacterial Agents against Drug-Resistant Pathogens” (J Med Chem, 2024), this text covers MIC for 8 molecules.

Converted amounts (≈) assume the structure as drawn.

By MIC is commonly meant the lowest concentration found to suppress growth.

The subject of assay [1] is Mycobacterium tuberculosis. The experiment in a line: Antibacterial activity against isoniazid/streptomycin/rifampicin/ethambutol/rifabutin/para-axminosalicylate/ofloxacin resistant Mycobacterium tuberculosis 13946 assessed as inhibition of bacterial growth incubated for 7 days by alamar blue assay. Type of assay: functional. The settings on record: Mycobacterium tuberculosis, 13946, 168 h; time 7 day.

Assay [2] deals with Mycobacterium tuberculosis. The experiment in a line: Antibacterial activity against isoniazid/streptomycin/rifampicin/ethambutol/para-axminosalicylate/prothionamide/capreomycin resistant Mycobacterium tuberculosis 14862 assessed as inhibition of bacterial growth incubated for 7 days by alamar blue assay. Type of assay: functional. Conditions: Mycobacterium tuberculosis, 14862, 168 h; time 7 day.

For the molecule `CC(=O)NC[C@@H]1OC(=O)N2Cc3c(cc(F)c(-c4ccc(-c5nnn(C)n5)nc4)c3F)O[C@@H]12`, the MIC in assay [1] worked out at 0.28 µg/mL (≈ 0.612 µM); in assay [2], 0.33 µg/mL (≈ 0.721 µM).
For `CC(=O)NC[C@@H]1OC(=O)N2Cc3cc(-c4ccc(C#N)cc4)c(F)cc3O[C@@H]12`, in that order: 0.11 µg/mL (≈ 0.288 µM) and 0.41 µg/mL (≈ 1.08 µM).
For `COC(=O)NC[C@@H]1OC(=O)N2Cc3cc(-c4ccc(-c5nnn(C)n5)nc4)c(F)cc3O[C@@H]12`, in that order: 0.39 µg/mL (≈ 0.856 µM) and 0.22 µg/mL (≈ 0.483 µM).
Consider `CO[C@H]1/C=C/O[C@@]2(C)Oc3c(C)c(O)c4c(O)c(c(/C=N/N5CCN(C)CC5)c(O)c4c3C2=O)NC(=O)/C(C)=C\C=C\[C@H](C)[C@H](O)[C@@H](C)[C@@H](O)[C@@H](C)[C@H](OC(C)=O)[C@@H]1C` [RIFAMPIN], for which the MIC in assay [1] and in assay [2] was more than 10 µg/mL throughout.
`CC(=O)NC[C@@H]1OC(=O)N2Cc3c(cc(F)c(-c4ccc(C#N)nc4)c3F)O[C@@H]12`: the MIC in assay [1] came out at 0.48 µg/mL (≈ 1.2 µM); in assay [2] it was 0.47 µg/mL (≈ 1.17 µM).
For `NNC(=O)c1ccncc1` [ISONIAZID], in that order: 4.78 µg/mL (≈ 34.9 µM) and more than 10 µg/mL.
Regarding `COC(=O)NC[C@@H]1OC(=O)N2Cc3cc(-c4ccc(C#N)nc4)c(F)cc3O[C@@H]12`, the MIC was 0.87 µg/mL (≈ 2.18 µM) in assay [1] and 0.6 µg/mL (≈ 1.51 µM) in assay [2].
`COC(=O)NC[C@@H]1OC(=O)N2Cc3cc(-c4ccc(C#N)cc4)c(F)cc3O[C@@H]12`: the MIC amounted to 0.56 µg/mL (≈ 1.41 µM) in assay [1] and 0.24 µg/mL (≈ 0.604 µM) in assay [2].
